#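 Tested at 5 concentrations; 48 h exposure; 96-well plates; endpoints linearly interpolated, else capped at highest concentration. GI50: concentration for 50% inhibition of growth. Definition used: TGI = concentration required for complete inhibition of growth.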
# Tests used:
# Test in all cases: NCI tumour cell line growth inhibition, 48 h
# [1] = tested on: HCT-15 colon
# [2] = tested on: SW-620 colon
# [3] = tested on: NCI-H522 lung
# [4] = tested on: KM12 colon
# [5] = tested on: MDA-MB-435
# [6] = tested on: LOX IMVI melanoma
# [7] = tested on: HT29 colon
# [8] = tested on: ACHN renal
# [9] = tested on: NCI/ADR-RES ovarian
# [10] = tested on: MDA-MB-231 breast
# [11] = tested on: SK-MEL-5 melanoma
# [12] = tested on: MCF7 breast
# [13] = tested on: HCT-116 colon
# [14] = tested on: UACC-62 melanoma
# [15] = tested on: A549 NSCLC
# [16] = tested on: HS 578T breast
# [17] = tested on: U251 CNS
# [18] = tested on: SN12C renal
# [19] = tested on: SF-539 CNS
# [20] = tested on: SR leukemia
# [21] = tested on: OVCAR-4 ovarian
# [22] = tested on: SK-OV-3 ovarian
# [23] = tested on: M14 melanoma
# [24] = tested on: TK-10 renal
# [25] = tested on: MOLT-4 leukemia
# [26] = tested on: HCC-2998 colon
# [27] = tested on: NCI-H23 lung
# [28] = tested on: SNB-75 CNS
# [29] = tested on: SF-268 CNS
# [30] = tested on: T-47D breast
# [31] = tested on: K-562 leukemia
# [32] = tested on: COLO 205 colon
# [33] = tested on: RPMI-8226 leukemia
# [34] = tested on: HOP-62 NSCLC
# [35] = tested on: 786-0 renal
# [36] = tested on: UACC-257 melanoma
# [37] = tested on: NCI-H460 lung
# [38] = tested on: OVCAR-5 ovarian
# [39] = tested on: CAKI-1 renal
# [40] = tested on: HOP-92 NSCLC
# [41] = tested on: SK-MEL-2 melanoma
# [42] = tested on: OVCAR-3 ovarian
# [43] = tested on: SF-295 CNS
# [44] = tested on: UO-31 renal
# [45] = tested on: SK-MEL-28 melanoma
# [46] = tested on: OVCAR-8 ovarian
# [47] = tested on: A498 renal
# [48] = tested on: DU-145 prostate
# [49] = tested on: BT-549 breast
# [50] = tested on: RXF 393 renal
# [51] = tested on: MALME-3M melanoma
# [52] = tested on: EKVX NSCLC
# [53] = tested on: PC-3 prostate
# [54] = tested on: SNB-19 CNS
# [55] = tested on: MDA-N
# [56] = tested on: NCI-H226 lung
# [57] = tested on: IGROV1 ovarian
structure (smiles),measurement,setting,value
O=[N+]([O-])[O][Sn]([O][Sn]([O][N+](=O)[O-])([c]1ccccc1)[c]1ccccc1)([c]1ccccc1)[c]1ccccc1,GI50,[1],> 100 µM
same,TGI,[1],> 100 µM
same,GI50,[2],> 100 µM
same,TGI,[2],> 100 µM
same,GI50,[3],23.1 µM
same,TGI,[3],> 100 µM
same,GI50,[4],> 100 µM
same,TGI,[4],> 100 µM
same,GI50,[5],> 100 µM
same,TGI,[5],> 100 µM
same,GI50,[6],83.4 µM
same,TGI,[6],> 100 µM
same,GI50,[7],> 100 µM
same,TGI,[7],> 100 µM
same,GI50,[8],> 100 µM
same,TGI,[8],> 100 µM
same,GI50,[9],> 100 µM
same,TGI,[9],> 100 µM
same,GI50,[10],> 100 µM
same,TGI,[10],> 100 µM
same,GI50,[11],> 100 µM
same,TGI,[11],> 100 µM
same,GI50,[12],> 100 µM
same,TGI,[12],> 100 µM
same,GI50,[13],> 100 µM
same,TGI,[13],> 100 µM
same,GI50,[14],53.6 µM
same,TGI,[14],> 100 µM
same,GI50,[15],> 100 µM
same,TGI,[15],> 100 µM
same,GI50,[16],47.1 µM
same,TGI,[16],> 100 µM
same,GI50,[17],> 100 µM
same,TGI,[17],> 100 µM
same,GI50,[18],> 100 µM
same,TGI,[18],> 100 µM
same,GI50,[19],> 100 µM
same,TGI,[19],> 100 µM
same,GI50,[20],> 100 µM
same,TGI,[20],> 100 µM
same,GI50,[21],> 100 µM
same,TGI,[21],> 100 µM
same,GI50,[22],> 100 µM
same,TGI,[22],> 100 µM
same,GI50,[23],> 100 µM
same,TGI,[23],> 100 µM
same,GI50,[24],> 100 µM
same,TGI,[24],> 100 µM
same,GI50,[25],> 100 µM
same,TGI,[25],> 100 µM
same,GI50,[26],> 100 µM
same,TGI,[26],> 100 µM
same,GI50,[27],> 100 µM
same,TGI,[27],> 100 µM
same,GI50,[28],> 100 µM
same,TGI,[28],> 100 µM
same,GI50,[29],> 100 µM
same,TGI,[29],> 100 µM
same,GI50,[30],> 100 µM
same,TGI,[30],> 100 µM
same,GI50,[31],> 100 µM
same,TGI,[31],> 100 µM
same,GI50,[32],> 100 µM
same,TGI,[32],> 100 µM
same,GI50,[33],> 100 µM
same,TGI,[33],> 100 µM
same,GI50,[34],> 100 µM
same,TGI,[34],> 100 µM
same,GI50,[35],> 100 µM
same,TGI,[35],> 100 µM
same,GI50,[36],> 100 µM
same,TGI,[36],> 100 µM
same,GI50,[37],> 100 µM
same,TGI,[37],> 100 µM
same,GI50,[38],> 100 µM
same,TGI,[38],> 100 µM
same,GI50,[39],> 100 µM
same,TGI,[39],> 100 µM
same,GI50,[40],38.6 µM
same,TGI,[40],> 100 µM
same,GI50,[41],> 100 µM
same,TGI,[41],> 100 µM
same,GI50,[42],> 100 µM
same,TGI,[42],> 100 µM
same,GI50,[43],> 100 µM
same,TGI,[43],> 100 µM
same,GI50,[44],> 100 µM
same,TGI,[44],> 100 µM
same,GI50,[45],> 100 µM
same,TGI,[45],> 100 µM
same,GI50,[46],> 100 µM
same,TGI,[46],> 100 µM
same,GI50,[47],> 100 µM
same,TGI,[47],> 100 µM
same,GI50,[48],> 100 µM
same,TGI,[48],> 100 µM
same,GI50,[49],> 100 µM
same,TGI,[49],> 100 µM
same,GI50,[50],> 100 µM
same,TGI,[50],> 100 µM
same,GI50,[51],79.3 µM
same,TGI,[51],> 100 µM
same,GI50,[52],> 100 µM
same,TGI,[52],> 100 µM
same,GI50,[53],63.2 µM
same,TGI,[53],> 100 µM
same,GI50,[54],> 100 µM
same,TGI,[54],> 100 µM
same,GI50,[55],> 100 µM
same,TGI,[55],> 100 µM
same,GI50,[56],> 100 µM
same,TGI,[56],> 100 µM
same,GI50,[57],72.8 µM
same,TGI,[57],> 100 µM

# From PubChem BioAssay (NCI)
